Tests used:
[1] = target: Ubiquitin-conjugating enzyme E2 N/Ubiquitin-conjugating enzyme E2 variant 1 (Homo sapiens, UniProt P61088+Q13404); assay: Inhibition of recombinant human Ubc13-Uev1A interaction expressed in Escherichia BL21 after 1.5 hrs by ELISA
[2] = target: Ubiquitin-conjugating enzyme E2 N/Ubiquitin-conjugating enzyme E2 variant 1 (Homo sapiens) (UniProt Q13404+P61088); assay: Ratio of leucettamol A IC50 to compound IC50 for recombinant human Ubc13-Uev1A interaction expressed in Escherichia BL21

IC50 [1] [nM] | Ratio IC50 [2] | Structure (SMILES)
90 | 1000 | CC1=CC(C)(C)[C@@H](/C=C\[C@@H](C)[C@H]2CC[C@H]3[C@@H]4C[C@H](OS(=O)(=O)O)[C@H]5C[C@H](O)[C@@H](OS(=O)(=O)O)C[C@]5(C)[C@H]4CC[C@]23C)[C@H]1CC[C@@H](C)[C@H]1CC[C@H]2[C@@H]3C[C@H](OS(=O)(=O)O)[C@H]4C[C@H](OS(=O)(=O)O)[C@@H](OS(=O)(=O)O)C[C@]4(C)[C@H]3CC[C@]12C [MANADOSTEROL A]
130 | – | C=C1CC(C)(C)[C@@H](/C=C/[C@@H](C)[C@H]2CC[C@H]3[C@@H]4C[C@H](OS(=O)(=O)O)[C@H]5C[C@@H](O)CC[C@]5(C)[C@H]4CC[C@]23C)[C@H]1CC(O)[C@@H](C)[C@H]1CC[C@H]2[C@@H]3C[C@H](OS(=O)(=O)O)[C@H]4C[C@H](OS(=O)(=O)O)[C@@H](OS(=O)(=O)O)C[C@]4(C)[C@H]3CC[C@]12C (stereo partly drawn) [MANADOSTEROL B]

Source: ChEMBL document CHEMBL2086306, “Manadosterols A and B, sulfonated sterol dimers inhibiting the Ubc13-Uev1A interaction, isolated from the marine sponge Lissodendryx fibrosa” (J Nat Prod, 2012)
